Assay results: ChEMBL document CHEMBL3301458, “MMV Malaria Box hERG screening”
Activity calls are given as the source filed them. How the calls were made is not given here.

Key:
hERG (Kv11.1, KCNH2) [1] = molecular target: T1, hERG (Kv11.1, KCNH2) (Homo sapiens, UniProt Q12809); test: in vitro
Description: MMV: Malaria Box compounds were tested for inhibition of the human ether a go-go related gene (hERG), Kv11.1 channel, using IonWorks 384-well patch clamp electrophysiology at 1.1uM (3 independent assay plates up to 12 cells per concentration).

hERG (Kv11.1, KCNH2) [2] = molecular target: T1, hERG (Kv11.1, KCNH2); test: in vitro; remark: listed apart in the source
Description: MMV: Malaria Box compounds were tested for inhibition of the human ether a go-go related gene (hERG), Kv11.1 channel, using IonWorks 384-well patch clamp electrophysiology at 11.1uM (3 independent assay plates up to 12 cells per concentration).

T1 sequence (Q12809 whole entry): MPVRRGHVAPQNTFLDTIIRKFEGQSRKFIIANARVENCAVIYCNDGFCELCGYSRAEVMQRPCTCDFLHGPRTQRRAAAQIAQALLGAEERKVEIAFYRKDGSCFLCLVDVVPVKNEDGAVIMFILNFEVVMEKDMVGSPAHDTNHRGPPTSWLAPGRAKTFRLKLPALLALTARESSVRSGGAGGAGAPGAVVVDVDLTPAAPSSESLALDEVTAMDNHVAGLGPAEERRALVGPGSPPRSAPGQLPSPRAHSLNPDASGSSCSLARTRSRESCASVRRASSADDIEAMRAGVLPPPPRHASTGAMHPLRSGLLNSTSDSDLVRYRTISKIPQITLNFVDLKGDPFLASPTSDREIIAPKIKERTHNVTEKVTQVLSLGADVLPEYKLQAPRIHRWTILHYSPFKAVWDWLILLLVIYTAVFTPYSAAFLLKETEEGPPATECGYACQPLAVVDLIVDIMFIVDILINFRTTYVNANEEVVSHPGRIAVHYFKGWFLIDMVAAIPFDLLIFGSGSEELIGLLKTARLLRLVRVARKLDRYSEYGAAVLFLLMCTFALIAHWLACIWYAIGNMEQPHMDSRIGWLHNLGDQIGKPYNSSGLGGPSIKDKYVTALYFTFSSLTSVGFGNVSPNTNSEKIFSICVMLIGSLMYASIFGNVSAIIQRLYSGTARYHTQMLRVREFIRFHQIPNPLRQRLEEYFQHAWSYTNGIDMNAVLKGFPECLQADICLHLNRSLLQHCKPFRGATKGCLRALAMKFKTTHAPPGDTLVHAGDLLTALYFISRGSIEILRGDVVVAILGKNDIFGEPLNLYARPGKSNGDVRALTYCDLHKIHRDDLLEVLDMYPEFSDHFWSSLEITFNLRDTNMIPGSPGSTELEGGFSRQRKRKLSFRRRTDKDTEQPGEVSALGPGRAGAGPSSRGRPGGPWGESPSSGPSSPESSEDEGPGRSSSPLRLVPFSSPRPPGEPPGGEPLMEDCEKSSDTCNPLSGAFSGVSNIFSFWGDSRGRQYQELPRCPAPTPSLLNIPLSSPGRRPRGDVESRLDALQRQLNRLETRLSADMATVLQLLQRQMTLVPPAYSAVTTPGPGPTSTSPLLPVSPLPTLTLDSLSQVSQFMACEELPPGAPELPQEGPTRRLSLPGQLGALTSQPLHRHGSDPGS

| SMILES | inhibition at 1.1 µM (hERG (Kv11.1, KCNH2) [1]) | inhibition at 11.1 µM (hERG (Kv11.1, KCNH2) [2]) |
| --- | --- | --- |
| CN1CCN(c2ccc(Nc3c4ccccc4nc4ccccc34)cc2)CC1 | 24% | 75% (active) |
| CN(C)CCCNc1c2ccccc2nc2ccccc12 | 5% | 31% |
| CCN(CC)CCNc1ccnc2cc(Cl)ccc12 | 18% | 61% (active) |
| O=C(Nc1ccc(Br)cc1)Nc1cccc(Cl)c1 | -5% | 11% (inactive) |
| CN(C)CCNc1cc(-c2ccccc2)nc2ccccc12 | 20% | 66% (active) |
| Cc1cc(NCCN2CCCCC2)c2ccc3ccccc3c2n1 | 32% | 95% (active) |
| O=C(NCc1ccco1)C1CCN(S(=O)(=O)c2ccc(Cl)cc2)CC1 | 11% | 38% |
| CCc1c(C)c(=N)c2ccccc2n1C | 6% | 11% (inactive) |
| COc1cc2cc(C(=O)Nc3ccccc3)c(N)nc2cc1OC | 10% | 69% (active) |
| Oc1ccc(-c2nc(-c3ccc4oc5ccc(-c6[nH]c(-c7ccc(O)cc7)nc6-c6ccccc6)cc5c4c3)c(-c3ccccc3)[nH]2)cc1 | 12% | 54% (active) |
| CN(C)c1ccc(C=Cc2nc(=O)c3ccccc3o2)cc1 | 2% | 0% (inactive) |
| CCN(CC)CCn1c(=N)n(CC(O)c2ccc(Cl)c(Cl)c2)c2ccccc21 (configuration not stated) | 36% | 86% (active) |
| Cc1ccnc(NC(c2cccc(OCc3ccccc3)c2)c2ccc3cccnc3c2O)c1 (configuration not stated) | 6% | 24% (inactive) |
| CCCN(CCC)CC(O)COc1ccccc1C(=O)Nc1ccccc1 (configuration not stated) | 57% | 98% |
| CCN(CC)CCNc1ccnc2cc3ccccc3cc12 | 9% | 6% (inactive) |
| COc1ccc(NC(=O)C2c3ccccc3C(=O)N(CC(C)C)C2c2cccs2)cc1Cl (configuration not stated) | 0% | 24% (inactive) |
| Cc1cc(Nc2cccc(F)c2)nc(NCc2ccccc2)n1 | 11% | 73% (active) |
| OCCNc1nc(Nc2ccc(Cl)c(Cl)c2)nc2ccccc12 | 4% | 30% |
| CCOC(=O)c1cnc2ccc(OC)cc2c1Nc1ccc(N2CCN(C)CC2)cc1 | 15% | 15% (inactive) |
| CCOc1cc2c(cc1OCC)C(c1cc(Cl)ccc1O)NCC2 (configuration not stated) | 1% | 20% (inactive) |
| Cc1cc(C)c2c(c1)OCN(Cc1ccccc1Cl)C2 | 30% | 88% (active) |
| COc1cc(OC)c(N(C)C(=O)c2cc3c(s2)-c2ccccc2S(=O)(=O)C3)cc1Cl | 3% | 41% |
| c1ccc2c(NCCc3c[nH]c4ccccc34)c3ccccc3nc2c1 | 64% | 109% |
| O=C1c2ccccc2C2=Nc3ccccc3SC(c3cccc(F)c3)C12 (configuration not stated) | -4% | 4% (inactive) |
| CCOC(=O)c1cnc2c(C)cccc2c1Nc1ccc(C(C)=O)cc1 | 6% | 39% |
| Cc1cc(NC(=O)C2c3ccccc3C(=O)N(CC(C)C)C2c2cccs2)no1 (configuration not stated) | 4% | 11% (inactive) |

| SMILES | inhibition at 1.1 µM (hERG (Kv11.1, KCNH2) [1]) | inhibition at 11.1 µM (hERG (Kv11.1, KCNH2) [2]) |
| --- | --- | --- |
| CCOc1cc2c(cc1OCC)C(c1cc(C)c(O)c(C)c1)NCC2 (configuration not stated) | 13% | 36% |
| O=C1CC(O)(C(F)(F)C(F)(F)F)Oc2ccccc21 (configuration not stated) | -9% | 3% (inactive) |
| Cc1ccc(C2CC(C(F)(F)F)n3nc(C(=O)N4CCN(C(c5ccccc5)c5ccccc5)CC4)cc3N2)cc1 (configuration not stated) | 5% | 8% (inactive) |
| Cc1ccc2nc(C)cc(Nc3cccc(C(F)(F)F)c3)c2c1 | 48% | 106% (active) |
| CCOc1cccc2sc(N(Cc3cccnc3)C(=O)C3CCCCC3)nc12 | 8% | 54% (active) |
| CC(C)c1ccc(CNCC(O)c2ccccc2)cc1 (configuration not stated) | 15% | 59% (active) |
| CC1CC(C)CN(C(=O)c2ccc(Cl)cc2Cl)C1 (configuration not stated) | -3% | 5% (inactive) |
| COc1ccccc1CNC(=O)C1c2ccccc2C(=O)N(CC(C)C)C1c1cccs1 (configuration not stated) | -15% | 17% (inactive) |
| CCOc1cc2c(cc1OCC)C(c1cc(Cl)c(O)c(OCC)c1)NCC2 (configuration not stated) | 1% | 57% (active) |
| OC(CNC1CCCC1)Cn1c2ccccc2c2ccccc21 (configuration not stated) | 8% | 55% (active) |
| CCc1ccc(Nc2cc(C)c3ccc(O)cc3n2)cc1 | 15% | 78% (active) |
| CCN(CC)c1cc(C)c2cc(NC(=O)c3cccc(OC)c3)ccc2n1 | 85% | 103% |
| COc1ccc(C(O)(CCC(C)C)C(CN2CCOCC2)c2ccc(Cl)cc2)cc1 (configuration not stated) | 4% | 109% (active) |
| CCCCCCn1c(=N)n(CC(O)COc2cccc(C)c2)c2ccccc21 (configuration not stated) | 57% | 111% |
| Cc1ccc(NC(=O)Nc2cccc(Cl)c2)cc1F | -7% | -1% (inactive) |
| CC(C)OCc1cc(CN2CCN(c3cccc(Cl)c3)CC2)c(O)c2ncccc12 | 65% | 100% |
| Oc1ccc(Br)cc1CN1CCN(Cc2cccc(F)c2)CC1 | -1% | 18% (inactive) |
| COc1ccc(-c2cc(=O)oc3c4c(ccc23)OCN(Cc2ccc(F)cc2)C4)cc1 | 24% | 16% (inactive) |
| CSc1ccccc1C(=O)Nc1nc(-c2ccccn2)cs1 | 15% | 39% |
| CC(O)(c1ccc(Cl)cc1)C(CN1CCCCC1)c1ccccc1 (configuration not stated) | 40% | 84% (active) |
| CCCCc1ccc(NS(=O)(=O)c2cc3c4c(c2)CCN4C(=O)CC3)cc1 | 2% | 26% |
| CCn1c2c(c(=N)c3c1CCC3)CCCC2 | 48% | 104% (active) |
| CCCOCc1cc(CN2CCN(c3cccc(Cl)c3)CC2)c(O)c2ncccc12 | 3% | 106% (active) |
| CCOc1ccc2c(c1)CN(Cc1ccc(Cl)cc1)CO2 | 33% | 99% (active) |
| CCOc1ccccc1CNC(=O)C1c2ccccc2C(=O)N(CC(C)C)C1c1cccs1 (configuration not stated) | 12% | 84% (active) |
| CC(C)(C)c1ccc2c(c1)CN(Cc1ccc(Cl)cc1)CO2 | 25% | 12% (inactive) |

| SMILES | inhibition at 1.1 µM (hERG (Kv11.1, KCNH2) [1]) | inhibition at 11.1 µM (hERG (Kv11.1, KCNH2) [2]) |
| --- | --- | --- |
| CCCCC(O)(c1ccc(Cl)cc1)C(CN1CCOCC1)c1ccc(Cl)cc1 (configuration not stated) | 18% | 35% |
| c1ccc(CNc2nc(Nc3ccccc3)nc3ccccc23)cc1 | 17% | 69% (active) |
| CCOC(=O)c1ccc2[nH]c(-c3ccccc3)cc(=O)c2c1 | -1% | 7% (inactive) |
| Clc1ccc2[nH]c3c(NCCCN4CCOCC4)ncnc3c2c1 | 29% | 89% (active) |
| COc1ccc(Nc2nc(NCc3ccccc3)c3ccccc3n2)cc1 | 0% | 53% (active) |
| Cc1cc(=O)oc2c1ccc1oc(C(=O)c3ccccc3)c(C)c12 | -6% | 6% (inactive) |
| COc1ccc2c(c1OC)C(=O)N1c3ccccc3N=C(c3ccc(C)cc3)CC21 (configuration not stated) | 25% | 10% (inactive) |
| Oc1c(CN2CCN(c3ccccc3F)CC2)cc(Br)c2cccnc12 | -9% | 46% |
| OC(CNCc1ccccc1)Cn1c2ccccc2c2ccccc21 (configuration not stated) | 41% | 94% (active) |
| CCOc1ccc(Nc2c3ccccc3nc3ccccc23)cc1 | 68% | 112% |
| CCOc1ccc2nc(C)cc(Nc3ccc(Br)cc3)c2c1 | 3% | 16% (inactive) |
| COc1ccc(C)c2sc(N(Cc3cccnc3)C(=O)c3ccc(C#N)cc3)nc12 | 1% | 69% (active) |
| COc1ccc(C2Sc3ccccc3N=C3C2=C(O)c2ccccc23)cc1 (configuration not stated) | -2% | 26% |
| CCCCCCC(O)(c1ccc(F)cc1)C(CN1CCOCC1)c1ccccc1 (configuration not stated) | 0% | 71% (active) |
| CCOc1c(Br)cc(C2C(C(=O)OC)=CN(C)C=C2C(=O)OC)cc1OC | 3% | 21% (inactive) |
| CCCN(CCC)CCCNC(=O)c1cc2c(-c3ccc(OC)c(OC)c3)nn(C)c2s1 | 6% | 47% |
| Cc1cc(N2CCN(C3CCCC3)CC2)n2c(nc3ccccc32)c1C#N | -3% | 45% |
| CCCCCn1c(=N)n(CC(O)COc2cccc(C)c2)c2ccccc21 (configuration not stated) | 59% | 101% |
| Cc1ccc(Nc2nc(NCCO)c3ccccc3n2)cc1C | > 12% | 81% (active) |
| COc1ccc2sc(N(Cc3cccnc3)C(=O)c3ccc(C#N)cc3)nc2c1 | 14% | 82% (active) |
| CC1CCCCN1CCCNC(=O)c1ccc2c(c1)sc1nc(-c3ccc(F)cc3)cn12 (configuration not stated) | 64% | 81% |
| COc1ccc(NC(=O)C2c3ccccc3C(=O)N(CC(C)C)C2c2cccs2)cc1 (configuration not stated) | 7% | 18% (inactive) |
| CCOC(=O)C1=CN(C)C=C(C(=O)OCC)C1c1cc(Br)c(OCC)c(OC)c1 | 16% | 54% (active) |
| CN1CCN(c2nc(Nc3ccc(O)cc3)nc3ccccc23)CC1 | 31% | 31% |
